Laboratory results published in EP0470323A2, “New salts of the nicotinic acid with aminobenzylic compounds and their pharmaceutical use” (BROMLEY LIMITED, priority 1990, dated 1992).

Tests used:
[1] = system: Central artery of a rabbit's ear; test: In vitro antispastic action, adrenalin-induced spasm of the perfused isolated artery; conditions: spasm induced by Adrenalin, n=4, listed as Compound accord.Ex.1
Procedure: An "in vitro" method has been used, according to which the withdrawal of the central artery of a rabbit's ear with the relevant nervous connections and the equipment of an appropriate seat for secluded organs was designed (Fleckenstein A., British Journal of Pharmacology 7, 533, 1952).
On the artery they did install a three-ways tube, connected with a peristaltic pump and with a mercury manometer to record the perfusion pressure. The artery was perfused with a rebs liquid at the speed of 2,5 ml/minute. The contractions were induced by injecting into the vessel 0,1 ml adrenalin at the concentration of 1 mcg/ml. The compound according to the example 1 has been added to the bath at concentrations of 0,5 - 1 - 2 uM, five minutes before the adrenalin (four preparations per concentration). As comparison drugs, chlorhydra ted Buflomedil and Papaverin have been used. The activity of the material under investigation has been appreciated in terms of percentages referring to the concentration induced by the Adrenalin (and expressed with DE₅₀) and the relevant forbidding.

[2] = system: HeLa human cells cultures; test: DNA repair synthesis (tritiated thymidine incorporation) in HeLa cell cultures; format: cell-based; conditions: vs controls treated with solvent, dosages tested
From the text: The compound according to the Example 1 has been tested, in order to check and see its mutagenic effects.

[3] = system: hypertrigliceridaemia from olive oil in the rats; test: Hypertriglyceridaemia from olive oil in the rat (serum lactescence); format: in vivo
Procedure: The method described by Zucker I.H. (Sci. Anal. Lab. 24, 114, 1972) has been followed.
Male rats have been used, whose body weight was 150-200 g. The animals were without eating with water "ad libitum" and all this beginning 24 hours before the experiment. The hyperlipaemia was induced by the administration of olive oil by mouth; its composition as to the fat acids was as follows: palmitic acid 10% palmitoleic acid 1%, stearic acid 3%, […] and linoleic acid 7% (all percentages are by weight). The quantity of olive oil administered, by means of a gastric probe, was 10 ml/kg. The treatments were made by finely pounding with a china mortar and by suspending in the olive oil the examined compounds. […] The positive control animals received only olive oil; moreover, there was also a group of negative control animals who received plain water in quantities of 10 ml/kg. Every three hours a group of rats (10) was killed in a light ethereal anaesthesia, in order to be able to appreciate the percentage of triglycerides in the blood. The animals were bled by cutting them the carotids and the blood was collected in plastic test-tubes, capacity 10 ml each, and was centrifuged for ten minutes at 3500 rpm. The evaluated parameter was the lactescence of the serum, which is directly proportional to the contents of kilomicrons and therefore of triglycerides (Zucker, see above the mention). The serum has been diluted 1:5 in a physiologic solution and was read at the spectrophotometer at […] against white (physiologic solution). From the individual optical Density (D.O.) data one could calculate for each group the average of the standard error. The statistical analysis was performed by means of the t of Dunnett.

[4] = system: Hypertriglyceridaemia caused by ethanole in the rats; test: Hypertriglyceridaemia caused by ethanol in rats, duration of the effects; format: in vivo; conditions: rat, dose 1 mM/kg/os
From the text: For this test group the methods described by Sistori C.R. and colleagues (Atherosclerosis 30, 45; 1978) is followed.
The hypertriglyceridaemia has been induced into the male rats having a body weight of 160 - 170 g by giving them to drink, for 4 consecutive days, a solution of 10% ethanole in water.
In order to perform the particular kinetics of the compound in accordance with the example 1 following the instant invention, it was considered appropriate, anyway, to evaluate the duration of the hypolipaemizing effect in comparison to that of the nicotinic acid.
A group of normal animals was treated with the vehicle only and did serve as a negative control group.

[5] = system: aggregation of the platelets caused by the collagene; test: Anti-aggregating ex vivo activity against collagen in the rat; conditions: for Latency time (sec.) / Transmittance percentage (maximum aggregation): PRP 2 hours after last treatment, collagene 4 mcg/ml
Procedure: Six groups of 15 male rats of 200 - 250 g have been used.
The blood taken from the three rats of each group has been mixed and centrifuged during 6 minutes at 1400 rpm, at room temperature. After having taken the plasma full of platelets (PRP) the thereunder floating material has been centrifuged again (4000 rpm during 10 minutes) in order to have the plasma with few platelets (PPP) separated from the balance. The PRP has been diluted with a part of PPP in order to bring the number of platelets to 350 ± 50 x 10³/mm³. The aggregation has been evaluated in accordance with the method of Minsker D.H. and coll. (J. Pharmacol.Exp.Ther. 210 37 1979) by using an ELVI 840 two-channels aggregometer and an Omniscribe recorder B.500. A quantity of 0,25 ml PRP has been used, transferred into the aggregometer for two minutes at 37°C and stirred at 1000 rpm. The light intensity was arranged in such a way, to obtain 0% transmittance with the PRP and 100% with the PPP. After 2′ incubation, by means of microsyringe the collagene was added to the PRP in a volume quantity of 5 mcl with the final concentration of 4 mcg/ml.
From the aggregation trace of the recorder the following data have been evaluated: • a) latent time of the aggregation (seconds between the introductions of collagene and the starting of the aggregation) • b) transmittance increase percentage (maximum aggregation). The same proceeding was repeated for all animals, always by mixing the blood of three rats belonging to the same group and by obtaining in this manner five aggregation curves per group.

[6] = rat, 1,00 mM/kg os for 4 days, listed as Compound according to the Example N° 1

COc1cc(OC)c(C(=O)CCCN2CCCC2)c(OC)c1 [Example 1, 4-(1 pyrrholydinyl)-1-(2,4,6 trimethoxypheniyl)-1-nicotinized butanone]
% inhibi-tions of the con-tractions ([1]; concentration 0,5 μ M): 45% | % inhibi-tions of the con-tractions ([1]; concentration 1,0 μ M): 70% | % inhibi-tions of the con-tractions ([1]; concentration 2,0 μ M): 94% | EC50 ([1]; read-out: DE50 (the source's name)): 580 nM | quantity of tritium-added Thymidine included into the DNA of the cells (repair synthese) [2]: did not determine any variation | Serum opt.density at the indicated times (M ± E.S.) ([3]; dose 1 mM/kg/os, 3 h): 247 ± 15,3 | Serum opt.density at the indicated times (M ± E.S.) ([3]; dose 1 mM/kg/os, 6 h): 1121 ± 51,6 | Serum opt.density at the indicated times (M ± E.S.) ([3]; dose 1 mM/kg/os, 9 h): 987 ± 36,7 | Serum opt.density at the indicated times (M ± E.S.) ([3]; dose 1 mM/kg/os, 12 h): 724 ± 28,4 | Serum opt.density at the indicated times (M ± E.S.) ([3]; dose 1 mM/kg/os, 15 h): 458 ± 21,3 | Serum opt.density at the indicated times (M ± E.S.) ([3]; dose 1 mM/kg/os, 18 h): 229 ± 22,6 | Serum opt.density at the indicated times (M ± E.S.) ([3]; dose 2 mM/kg/os, 3 h): 271 ± 15,9 | Serum opt.density at the indicated times (M ± E.S.) ([3]; dose 2 mM/kg/os, 6 h): 856 ± 44,2 | Serum opt.density at the indicated times (M ± E.S.) ([3]; dose 2 mM/kg/os, 9 h): 624 ± 27,4 | Serum opt.density at the indicated times (M ± E.S.) ([3]; dose 2 mM/kg/os, 12 h): 451 ± 26,2 | Serum opt.density at the indicated times (M ± E.S.) ([3]; dose 2 mM/kg/os, 15 h): 294 ± 26,2 | Serum opt.density at the indicated times (M ± E.S.) ([3]; dose 2 mM/kg/os, 18 h): 212 ± 28,3 | Serum opt.density at the indicated times (M ± E.S.) ([3]; dose 4 mM/kg/os, 3 h): 260 ± 17,1 | Serum opt.density at the indicated times (M ± E.S.) ([3]; dose 4 mM/kg/os, 6 h): 720 ± 43,8 | Serum opt.density at the indicated times (M ± E.S.) ([3]; dose 4 mM/kg/os, 9 h): 612 ± 21,2 | Serum opt.density at the indicated times (M ± E.S.) ([3]; dose 4 mM/kg/os, 12 h): 400 ± 28,3 | Serum opt.density at the indicated times (M ± E.S.) ([3]; dose 4 mM/kg/os, 15 h): 226 ± 25,6 | Serum opt.density at the indicated times (M ± E.S.) ([3]; dose 4 mM/kg/os, 18 h): 184 ± 16,2 | % variation vs positive controls (Trigliceridi) ([4]; 4 h): -38,2% | Trigliceridi ([4]; 4 h from the last treatment): 158,9 ± 11,6 mg/100 ml | % variation vs positive controls (Trigliceridi) ([4]; 6 h): -42,6% | Trigliceridi ([4]; 6 h from the last treatment): 135,6 ± 10,9 mg/100 ml | % variation vs positive controls (Trigliceridi) ([4]; 12 h): -31,5% | Trigliceridi ([4]; 12 h from the last treatment): 141,0 ± 21,1 mg/100 ml | % variation vs positive controls (Trigliceridi) ([4]; 16 h): -22,1% | Trigliceridi ([4]; 16 h from the last treatment): 145,3 ± 12,7 mg/100 ml | % variation vs positive controls (Trigliceridi) ([4]; 24 h): -9,2% | Trigliceridi ([4]; 24 h from the last treatment): 150,1 ± 8,4 mg/100 ml | Latency time, % variation vs controls ([5]; rat, 0,25 mM/kg os for 4 days): +15,7% | Transmittance percentage, % variation vs controls ([5]; rat, 0,25 mM/kg os for 4 days): -14,4% | Latency time (sec.) ([5]; rat, 0,25 mM/kg os for 4 days): 43,4 ± 4,2 sec. | Transmittance percentage (maximum aggregation) ([5]; rat, 0,25 mM/kg os for 4 days): 67,3 ± 4,4% | Latency time, % variation vs controls ([5]; rat, 0,50 mM/kg os for 4 days): +38,7% | Transmittance percentage, % variation vs controls ([5]; rat, 0,50 mM/kg os for 4 days): -34,3% | Latency time (sec.) ([5]; rat, 0,50 mM/kg os for 4 days): 52,0 ± 3,5 sec. | Transmittance percentage (maximum aggregation) ([5]; rat, 0,50 mM/kg os for 4 days): 51,6 ± 4,0% | Latency time (sec.) [5, 6]: 64,5 ± 5,4 sec. | Transmittance percentage (maximum aggregation) [5, 6]: 30,2 ± 3,6% | Latency time, % variation vs controls [5, 6]: +72,0% | Transmittance percentage, % variation vs controls [5, 6]: -61,6%
